Source: the NIST ThermoML archive (doi:10.1016/j.jct.2017.05.001)
Numbers after ± are expanded uncertainties.

Assay: wn = mass fraction of the nth substance listed
Conditions: Liquid; for mass density: Vibrating tube method

CN(C)CCO [2-(N,N-dimethylamino)ethanol] + O
mass density [kg/m3]
Conditions | w1 = 0.1005 | w1 = 0.202 | w1 = 0.3005 | w1 = 0.3995
333.15 K, 130000 kPa | – | 1018.6 ± 0.7 | 1012.4 ± 0.7 | 1005.5 ± 0.7
333.15 K, 140000 kPa | 1028.8 ± 0.7 | 1021.9 ± 0.7 | 1015.4 ± 0.7 | 1008.7 ± 0.7
353.15 K, 100 kPa | 965.2 ± 0.7 | 958.1 ± 0.7 | 950.2 ± 0.7 | 941.1 ± 0.7
353.15 K, 500 kPa | 965.3 ± 0.7 | 958.1 ± 0.7 | 950.3 ± 0.7 | 941.2 ± 0.7
353.15 K, 1000 kPa | 965.6 ± 0.7 | 958.4 ± 0.7 | 950.6 ± 0.7 | 941.4 ± 0.7
353.15 K, 2000 kPa | 966 ± 0.7 | 958.8 ± 0.7 | 951 ± 0.7 | 941.9 ± 0.7
353.15 K, 5000 kPa | 967.3 ± 0.7 | 960.1 ± 0.7 | 952.4 ± 0.7 | 943.3 ± 0.7
353.15 K, 10000 kPa | 969.5 ± 0.7 | 962.4 ± 0.7 | 954.7 ± 0.7 | 945.8 ± 0.7
353.15 K, 15000 kPa | 971.6 ± 0.7 | 964.5 ± 0.7 | 956.9 ± 0.7 | 948.1 ± 0.7
353.15 K, 20000 kPa | 973.8 ± 0.7 | 966.7 ± 0.7 | 959.1 ± 0.7 | 950.5 ± 0.7
353.15 K, 30000 kPa | 978 ± 0.7 | 971 ± 0.7 | 963.4 ± 0.7 | 954.9 ± 0.7
353.15 K, 40000 kPa | 982 ± 0.7 | 975 ± 0.7 | 967.5 ± 0.7 | 959.2 ± 0.7
353.15 K, 50000 kPa | 986 ± 0.7 | 978.9 ± 0.7 | 971.6 ± 0.7 | 963.3 ± 0.7
353.15 K, 60000 kPa | 989.9 ± 0.7 | 982.7 ± 0.7 | 975.6 ± 0.7 | 967.5 ± 0.7
353.15 K, 70000 kPa | 993.6 ± 0.7 | 986.6 ± 0.7 | 979.3 ± 0.7 | 971.2 ± 0.7
353.15 K, 80000 kPa | 997.4 ± 0.7 | 990.1 ± 0.7 | 983 ± 0.7 | 975.1 ± 0.7
353.15 K, 90000 kPa | 1000.9 ± 0.7 | 993.8 ± 0.7 | 986.6 ± 0.7 | 978.7 ± 0.7
353.15 K, 100000 kPa | 1004.6 ± 0.7 | 997.3 ± 0.7 | 990.1 ± 0.7 | 982.4 ± 0.7
353.15 K, 110000 kPa | 1008.1 ± 0.7 | 1000.7 ± 0.7 | 993.6 ± 0.7 | 985.9 ± 0.7
353.15 K, 120000 kPa | 1011.7 ± 0.7 | 1004.1 ± 0.7 | 997 ± 0.7 | 989.3 ± 0.7
353.15 K, 130000 kPa | 1014.9 ± 0.7 | 1007.5 ± 0.7 | 1000.3 ± 0.7 | 992.7 ± 0.7
353.15 K, 140000 kPa | 1018.3 ± 0.7 | 1010.8 ± 0.7 | 1003.5 ± 0.7 | 996 ± 0.7
373.15 K, 100 kPa | 950.7 ± 0.7 | 942.4 ± 0.7 | 933.3 ± 0.7 | 923.1 ± 0.7
373.15 K, 500 kPa | 950.9 ± 0.7 | 942.7 ± 0.7 | 933.6 ± 0.7 | 923.4 ± 0.7
373.15 K, 1000 kPa | 951.2 ± 0.7 | 942.9 ± 0.7 | 933.9 ± 0.7 | 923.6 ± 0.7
373.15 K, 2000 kPa | 951.7 ± 0.7 | 943.4 ± 0.7 | 934.4 ± 0.7 | 924.2 ± 0.7
373.15 K, 5000 kPa | 953 ± 0.7 | 944.8 ± 0.7 | 935.9 ± 0.7 | 925.8 ± 0.7
373.15 K, 10000 kPa | 955.4 ± 0.7 | 947.2 ± 0.7 | 938.4 ± 0.7 | 928.4 ± 0.7
373.15 K, 15000 kPa | 957.7 ± 0.7 | 949.5 ± 0.7 | 940.8 ± 0.7 | 931.1 ± 0.7
373.15 K, 20000 kPa | 959.9 ± 0.7 | 951.8 ± 0.7 | 943.2 ± 0.7 | 933.6 ± 0.7

viscosity [mPa·s]
Conditions | w1 = 0.1 | w1 = 0.1005 | w1 = 0.2 | w1 = 0.202 | w1 = 0.3 | w1 = 0.3005 | w1 = 0.3995 | w1 = 0.4
353.15 K, 100 kPa, Concentric cylinders viscometry | 0.475 ± 0.011 | – | 0.618 ± 0.013 | – | 0.809 ± 0.017 | – | – | 1.044 ± 0.022
353.15 K, 100 kPa, Falling or rolling sphere viscometry | – | 0.4624 ± 0.015 | – | 0.6055 ± 0.02 | – | 0.8063 ± 0.026 | 1.05 ± 0.034 | –
353.15 K, 5000 kPa, Falling or rolling sphere viscometry | – | 0.4644 ± 0.015 | – | 0.6064 ± 0.02 | – | 0.812 ± 0.027 | 1.059 ± 0.035 | –
353.15 K, 10000 kPa, Falling or rolling sphere viscometry | – | 0.4671 ± 0.015 | – | 0.6135 ± 0.02 | – | 0.8213 ± 0.027 | 1.074 ± 0.035 | –
353.15 K, 15000 kPa, Falling or rolling sphere viscometry | – | 0.4699 ± 0.015 | – | 0.6195 ± 0.02 | – | 0.8321 ± 0.027 | 1.09 ± 0.036 | –
353.15 K, 20000 kPa, Falling or rolling sphere viscometry | – | 0.472 ± 0.015 | – | 0.6229 ± 0.02 | – | 0.8407 ± 0.028 | 1.105 ± 0.036 | –
353.15 K, 25000 kPa, Falling or rolling sphere viscometry | – | 0.4744 ± 0.016 | – | 0.6275 ± 0.021 | – | 0.8485 ± 0.028 | 1.118 ± 0.037 | –
353.15 K, 30000 kPa, Falling or rolling sphere viscometry | – | 0.4772 ± 0.016 | – | 0.6338 ± 0.021 | – | 0.856 ± 0.028 | 1.135 ± 0.037 | –
353.15 K, 40000 kPa, Falling or rolling sphere viscometry | – | 0.4824 ± 0.016 | – | 0.6411 ± 0.021 | – | 0.875 ± 0.029 | 1.167 ± 0.038 | –
353.15 K, 60000 kPa, Falling or rolling sphere viscometry | – | 0.491 ± 0.016 | – | 0.659 ± 0.022 | – | 0.9078 ± 0.03 | 1.225 ± 0.04 | –
353.15 K, 80000 kPa, Falling or rolling sphere viscometry | – | 0.4999 ± 0.016 | – | 0.6779 ± 0.022 | – | 0.9395 ± 0.031 | 1.281 ± 0.042 | –
353.15 K, 100000 kPa, Falling or rolling sphere viscometry | – | 0.5096 ± 0.017 | – | 0.6942 ± 0.023 | – | 0.9726 ± 0.032 | 1.337 ± 0.044 | –
373.15 K, 5000 kPa, Falling or rolling sphere viscometry | – | 0.359 ± 0.012 | – | 0.4516 ± 0.015 | – | 0.5788 ± 0.019 | 0.7177 ± 0.024 | –
373.15 K, 10000 kPa, Falling or rolling sphere viscometry | – | 0.3614 ± 0.012 | – | 0.4543 ± 0.015 | – | 0.5834 ± 0.019 | 0.7267 ± 0.024 | –
373.15 K, 15000 kPa, Falling or rolling sphere viscometry | – | 0.3638 ± 0.012 | – | 0.4578 ± 0.015 | – | 0.5895 ± 0.019 | 0.7398 ± 0.024 | –
373.15 K, 20000 kPa, Falling or rolling sphere viscometry | – | 0.3659 ± 0.012 | – | 0.4624 ± 0.015 | – | 0.5971 ± 0.02 | 0.7525 ± 0.025 | –
373.15 K, 25000 kPa, Falling or rolling sphere viscometry | – | 0.3691 ± 0.012 | – | 0.4659 ± 0.015 | – | 0.602 ± 0.02 | 0.7633 ± 0.025 | –
